Reference: article PMC9046087, “Structural basis of tethered agonism of the adhesion GPCRs ADGRD1 and ADGRF1” (Nature, 2022)
Ends that are not written are not given here.

Key:
Type in all cases: cell-based
ADGRF1 [1] = molecular target: T1, ADGRF1 (Homo sapiens, UniProt Q5T601, R623A); assay: BRET assay using TRUPATH biosensors, Gs activation of ADGRF1; conditions: Gs, ADGRF1 R623^2.46bA, n = 3
T1 construct: Flag (N); expressed in transfected cells; host or cells: HEK293F
T1 sequence (Q5T601 20-910 R623A): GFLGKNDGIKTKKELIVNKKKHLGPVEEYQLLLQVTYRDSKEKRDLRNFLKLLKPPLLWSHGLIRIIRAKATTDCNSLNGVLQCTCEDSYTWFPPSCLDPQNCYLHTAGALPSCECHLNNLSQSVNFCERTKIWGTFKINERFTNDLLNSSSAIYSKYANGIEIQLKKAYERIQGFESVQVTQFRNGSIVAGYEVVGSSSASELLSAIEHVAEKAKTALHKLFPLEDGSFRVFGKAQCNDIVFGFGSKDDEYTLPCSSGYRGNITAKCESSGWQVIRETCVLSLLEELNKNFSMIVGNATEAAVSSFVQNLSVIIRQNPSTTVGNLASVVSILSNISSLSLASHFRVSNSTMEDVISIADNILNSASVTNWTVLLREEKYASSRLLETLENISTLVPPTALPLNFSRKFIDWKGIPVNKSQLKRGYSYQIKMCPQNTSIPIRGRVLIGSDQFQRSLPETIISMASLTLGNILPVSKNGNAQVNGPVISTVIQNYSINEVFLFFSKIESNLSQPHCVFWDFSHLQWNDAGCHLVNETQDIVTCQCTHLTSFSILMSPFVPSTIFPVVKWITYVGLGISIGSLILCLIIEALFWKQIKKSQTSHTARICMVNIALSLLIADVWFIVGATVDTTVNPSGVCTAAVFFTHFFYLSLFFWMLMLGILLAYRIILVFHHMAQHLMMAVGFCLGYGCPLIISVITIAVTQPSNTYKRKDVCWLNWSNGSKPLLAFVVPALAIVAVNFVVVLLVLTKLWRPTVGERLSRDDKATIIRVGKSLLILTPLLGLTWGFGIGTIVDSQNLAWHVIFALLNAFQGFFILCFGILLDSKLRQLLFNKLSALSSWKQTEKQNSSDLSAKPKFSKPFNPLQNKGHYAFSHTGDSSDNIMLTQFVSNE
Method: (§1) To study the synthetic stalk peptide-induced G protein activation of ADGRD1 and ADGRF1, a BRET assay using TRUPATH biosensors was conducted to measure the proximal interaction between RLuc8 fused to the Gα subunit and GFP2 fused to the Gγ subunit. The TRUPATH suite of biosensors was obtained from Addgene (Addgene kit no. 1000000163) as a gift from B. Roth, including GαsS-RLuc8, Gαi1-RLuc8, Gβ3 and Gγ9-GFP2 as previously described.
(§2) The wild-type or mutant ADGRD1 and ADGRF1 were transiently co-transfected with plasmids encoding Gα-RLuc8 (GαsS-RLuc8 for Gs activation assay; Gαi1-RLuc8 for Gi activation assay), Gβ3 and Gγ9-GFP2 at a ratio of 2:1:1:1 (receptor plasmid, 800 ng; G protein subunit plasmids, 400 ng for each) in 2 ml HEK293F cells at a density of 1.2 × 10^6 cells per ml. Cell cultivation and receptor surface expression measurement were performed as described above. The cells were plated into 96-well white plates (40,000 cells per well) in 60 μl of assay buffer and incubated at 37 °C for 30 min. Then 10 μl of freshly prepared 50 μM coelenterazine 400a (Nanolight Technologies) was added. […] The cells were stimulated with 30 μl of synthetic stalk peptide at different concentrations and the BRET signals were monitored continuously five times. The last measurements were used in data analysis. The BRET ratios were calculated as the ratio of the GFP2 emission to RLuc8 emission.

ADGRF1 [2] = molecular target: T2, ADGRF1 (Homo sapiens, UniProt Q5T601, R788A); assay: as above; conditions: Gs, ADGRF1 R788^6.37bA, n = 3
T2 construct: Flag (N); expressed in transfected cells; host or cells: HEK293F
Method: as §1, §2

ADGRD1 = molecular target: T3, ADGRD1 (Homo sapiens, UniProt Q6QNK2); assay: BRET assay using TRUPATH biosensors, G protein activation of ADGRD1; conditions: Gs, ADGRD1 WT, n = 3
T3 construct: Flag (N); expressed in transfected cells; host or cells: HEK293F
T3 sequence (Q6QNK2 26-874): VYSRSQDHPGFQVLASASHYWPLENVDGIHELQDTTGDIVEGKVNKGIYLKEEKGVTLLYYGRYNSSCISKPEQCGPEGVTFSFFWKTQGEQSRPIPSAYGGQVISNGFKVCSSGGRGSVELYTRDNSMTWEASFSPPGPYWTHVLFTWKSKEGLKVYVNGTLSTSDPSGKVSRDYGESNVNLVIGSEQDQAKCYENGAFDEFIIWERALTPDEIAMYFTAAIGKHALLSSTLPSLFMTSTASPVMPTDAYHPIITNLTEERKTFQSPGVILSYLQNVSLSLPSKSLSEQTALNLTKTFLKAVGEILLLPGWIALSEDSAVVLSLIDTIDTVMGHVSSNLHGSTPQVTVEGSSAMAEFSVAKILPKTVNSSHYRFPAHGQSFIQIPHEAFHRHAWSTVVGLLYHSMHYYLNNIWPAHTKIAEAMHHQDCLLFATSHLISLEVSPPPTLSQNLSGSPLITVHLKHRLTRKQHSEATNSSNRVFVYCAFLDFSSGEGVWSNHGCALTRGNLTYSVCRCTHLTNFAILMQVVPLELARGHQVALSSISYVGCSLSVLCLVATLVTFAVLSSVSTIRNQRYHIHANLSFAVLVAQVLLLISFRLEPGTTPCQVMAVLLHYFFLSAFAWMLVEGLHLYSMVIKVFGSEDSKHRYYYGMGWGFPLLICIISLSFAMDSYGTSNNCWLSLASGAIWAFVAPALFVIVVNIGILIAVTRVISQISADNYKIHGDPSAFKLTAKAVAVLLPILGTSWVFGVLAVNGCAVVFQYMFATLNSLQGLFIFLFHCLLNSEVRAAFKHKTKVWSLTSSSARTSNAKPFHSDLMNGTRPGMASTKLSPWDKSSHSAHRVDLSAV
Method: as §1, §2

[3] = read-out: pEC50 (mean ± s.e.m.) (converted)

T2 sequence (Q5T601 20-910 R788A): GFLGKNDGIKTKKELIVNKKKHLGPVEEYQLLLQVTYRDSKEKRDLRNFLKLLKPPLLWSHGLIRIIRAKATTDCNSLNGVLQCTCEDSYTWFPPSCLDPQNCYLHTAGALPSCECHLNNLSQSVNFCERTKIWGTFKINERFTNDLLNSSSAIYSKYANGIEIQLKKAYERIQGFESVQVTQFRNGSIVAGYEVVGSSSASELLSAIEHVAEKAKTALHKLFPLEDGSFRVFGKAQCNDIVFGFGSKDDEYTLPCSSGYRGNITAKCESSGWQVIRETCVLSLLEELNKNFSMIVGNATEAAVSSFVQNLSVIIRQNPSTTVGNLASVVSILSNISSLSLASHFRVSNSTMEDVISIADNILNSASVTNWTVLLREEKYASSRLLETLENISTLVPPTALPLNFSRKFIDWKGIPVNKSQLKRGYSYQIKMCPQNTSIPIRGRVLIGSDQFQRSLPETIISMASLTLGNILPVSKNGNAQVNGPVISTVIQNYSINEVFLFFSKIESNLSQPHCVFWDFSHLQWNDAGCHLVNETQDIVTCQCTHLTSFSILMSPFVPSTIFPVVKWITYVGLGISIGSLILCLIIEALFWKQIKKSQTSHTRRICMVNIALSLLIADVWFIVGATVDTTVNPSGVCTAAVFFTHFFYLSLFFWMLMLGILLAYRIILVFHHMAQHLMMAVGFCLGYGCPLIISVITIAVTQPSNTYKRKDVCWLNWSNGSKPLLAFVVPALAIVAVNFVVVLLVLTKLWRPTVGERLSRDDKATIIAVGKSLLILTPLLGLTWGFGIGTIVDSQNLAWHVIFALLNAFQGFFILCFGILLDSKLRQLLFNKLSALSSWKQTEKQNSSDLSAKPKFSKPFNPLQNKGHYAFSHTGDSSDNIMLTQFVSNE

- Emax (mean ± s.e.m.) (ADGRF1 [1]): 57 ± 10 % of WT
- EC50 (ADGRF1 [1]; [3]): 148 nM
- Emax (mean ± s.e.m.) (ADGRF1 [2]): 112 ± 15 % of WT
- EC50 (ADGRF1 [2]; [3]): 933 nM
- Emax (mean ± s.e.m.) (ADGRD1): 67 ± 12 % of WT
- EC50 (ADGRD1; [3]): 1260 nM
Sequence: TSFSILMSPFVP [pF1]
